Measured values: patent US20240287078A1, “QUINAZOLINE DERIVATIVES USEFUL AS RAS INHIBITORS” (Redx Pharma PLC, priority 2021, published 2024)

Columns and labels:
KRAS G12D = target: T1, KRAS G12D (Homo sapiens, UniProt P01116, G12D); assay: HTRF nucleotide exchange assay (NEA), KRAS G12D; type: biochemical; conditions: recombinant human KRAS aa1-188 G12D, 2 nM, 60 min compound incubation, EDA-GTP-DY647P1; for inhibition at 10 µM: 1 h
T1 construct: aa1-188 KRAS WT, HRAS WT, NRAS WT, or KRAS containing the containing the G12D, G13D or Q61H amino acid substitutions
Procedure: (§1) HTRF Nucleotide Exchange Assay Method
(§2) The capacity of compounds to bind KRAS G12D, other KRAS mutants and wildtype RAS isoforms was quantified using a HTRF nucleotide exchange assay. Recombinant human RAS protein (2 nM; aa1-188 KRAS WT, HRAS WT, NRAS WT, or KRAS containing the containing the G12D, G13D or Q61H amino acid substitutions, or 4 nM KRAS; aa1-188 containing the G12V, G12C, G12A or G12S amino acid substitution, an N-terminal 6×His-tag and leader sequence), and 2 nM Europium-labeled anti-6×His antibody were mixed in assay buffer (10 mM HEPES pH7.3, 150 mM NaCl, 5 mM MgCl2, 0.05% BSA, 0.0025% NP-40 and 100 mM KF) with various concentrations of compound in a 384-well plate and a volume of 5 uL. After a 60-minute incubation at room temperature, Sul of 200 nM EDA-GTP-DY647P1 (diluted in assay buffer) was added to the plate. Following 30-minute incubation at room temperature, time-resolved fluorescence was measured on a PerkinElmer Envision plate reader. DMSO (0.3%) and unlabeled GDP (1 μM) or equivalent tool compound were used to generate the Max and Min assay signals, respectively. Data was analysed using a four-parameter logistic model to calculate IC50 values, with at least two independent replicates were performed for each compound.

KRAS WT = target: T2, KRAS WT (Homo sapiens, UniProt P01116); assay: HTRF nucleotide exchange assay (NEA), KRAS WT; type: biochemical; conditions: recombinant human KRAS WT aa1-188, 2 nM, 60 min compound incubation, EDA-GTP-DY647P1; for inhibition at 10 µM: 1 h
T2 construct: aa1-188 KRAS WT, HRAS WT, NRAS WT
Procedure: as §1, §2

T2 sequence (P01116 1-188 isoform P01116-2): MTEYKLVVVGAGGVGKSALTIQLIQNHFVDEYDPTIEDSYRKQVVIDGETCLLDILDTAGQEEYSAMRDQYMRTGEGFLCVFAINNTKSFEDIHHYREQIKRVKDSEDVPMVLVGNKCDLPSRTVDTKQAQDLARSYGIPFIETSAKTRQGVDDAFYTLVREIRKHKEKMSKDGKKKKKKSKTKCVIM
T1 sequence (P01116 1-188 isoform P01116-2 G12D): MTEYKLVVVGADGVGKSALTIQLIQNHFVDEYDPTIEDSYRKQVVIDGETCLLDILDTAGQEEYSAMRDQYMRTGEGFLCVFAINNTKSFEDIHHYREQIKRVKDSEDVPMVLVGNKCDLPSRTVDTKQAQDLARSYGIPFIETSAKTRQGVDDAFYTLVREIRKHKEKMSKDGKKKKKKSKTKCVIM

Row | IC50 (KRAS G12D) [µM] | IC50 (KRAS WT) [µM] | inhibition at 10 µM (KRAS G12D) [%] | inhibition at 10 µM (KRAS WT) [%] | Structure (SMILES)
1 | 0.1 to 10 | 0.1 to 10 |  |  | Cc1c(-c2cccc3sc(N)nc23)ccc2c(N3CCCOCC3)nc(OCC34CCCN3CCC4)nc12 [Example 13, 4-[2-(1,2,3,5,6,7-hexahydropyrrolizin-8-ylmethoxy)-8-methyl-4-(1,4-oxazepan-4yl)quinazolin-7-yl]-1,3-benzothiazol-2-amine]
2 |  |  | 10 to 49 | 10 to 49 | Cc1c(-c2nc(N)cc3ccccc23)ccc2c(N3CCCOCC3)nc(OCC34CCCN3CCC4)nc12 [Example 23, 1-[2-(1,2,3,5,6,7-hexahydropyrrolizin-8-ylmethoxy)-8-methyl-4-(1,4-oxazepan-4-yl)quinazolin-7-yl]isoquinolin-3-amine]
3 |  |  | 10 to 49 | 10 to 49 | Cc1c(-c2cccc3[nH]ncc23)ccc2c(N3CCCOCC3)nc(OCC34CCCN3CCC4)nc12 [Example 19, 4-[2-(1,2,3,5,6,7-hexahydropyrrolizin-8-ylmethoxy)-7-(1H-indazol-4-yl)-8-methyl-quinazolin-4-yl]-1,4-oxazepane]
4 |  |  | 10 to 49 | 10 to 49 | Cc1c(-c2ncnc3ccc(C#N)cc23)ccc2c(N3CCCOCC3)nc(OCC34CCCN3CCC4)nc12 [Example 12, 4-[2-(1,2,3,5,6,7-hexahydropyrrolizin-8-ylmethoxy)-8-methyl-4-(1,4-oxazepan-4-yl)quinazolin-7-yl]quinazoline-6-carbonitrile]
5 |  |  | 10 to 49 | 10 to 49 | Cc1ccc2[nH]ncc2c1-c1ccc2c(N3CCCOCC3)nc(OCC34CCCN3CCC4)nc2c1C [Example 18, 4-[2-(1,2,3,5,6,7-hexahydropyrrolizin-8-ylmethoxy)-8-methyl-7-(5-methyl-1H-indazol-4-yl)quinazolin-4-yl]-1,4-oxazepane]
6 |  |  | 10 to 49 | 10 to 49 | Cc1c(-c2cc(O)cc3ccccc23)ccc2c(N3CCc4cn[nH]c4C3)nc(OCC34CCCN3CCC4)nc12 [Example 11, 4-[2-(1,2,3,5,6,7-hexahydropyrrolizin-8-ylmethoxy)-8-methyl-4-(1,4,5,7-tetrahydropyrazolo[3,4-c]pyridin-6-yl)quinazolin-7-yl]naphthalen-2-ol]
7 |  |  | 10 to 49 | 10 to 49 | Cc1c(-c2n[nH]c3ccccc23)ccc2c(N3CCCOCC3)nc(OCC34CCCN3CCC4)nc12 [Example 20, 4-[2-(1,2,3,5,6,7-hexahydropyrrolizin-8-ylmethoxy)-7-(1H-indazol-3-yl)-8-methyl-quinazolin-4-yl]-1,4-oxazepane]
8 |  |  | 10 to 49 | 10 to 49 | Cc1c(-c2c[nH]nc2C(F)(F)F)ccc2c(N3CCCOCC3)nc(OCC34CCCN3CCC4)nc12 [Example 17, 4-[2-(1,2,3,5,6,7-hexahydropyrrolizin-8-ylmethoxy)-8-methyl-7-[3-(trifluoromethyl)-1H-pyrazol-4-yl]quinazolin-4-yl]-1,4-oxazepane]
9 |  |  | 10 to 49 | 10 to 49 | COc1ccc(C(F)(F)F)cc1-c1ccc2c(N3CCCOCC3)nc(OCC34CCCN3CCC4)nc2c1C [Example 15, 4-[2-(1,2,3,5,6,7-hexahydropyrrolizin-8-ylmethoxy)-7-[2-methoxy-5-(trifluoromethyl)phenyl]-8-methyl-quinazolin-4-yl]-1,4-oxazepane]
10 |  |  | 10 to 49 | 10 to 49 | Cc1nc(-c2ccc3c(N4CCCOCC4)nc(OCC45CCCN4CCC5)nc3c2C)c2ccccc2n1 [Example 14, 4-[2-(1,2,3,5,6,7-hexahydropyrrolizin-8-ylmethoxy)-8-methyl-7-(2-methylquinazolin-4-yl)quinazolin-4-yl]-1,4-oxazepane]
11 |  |  | 10 to 49 | 10 to 49 | Cc1c(-c2cccc3cnn(C)c23)ccc2c(N3CCCOCC3)nc(OCC34CCCN3CCC4)nc12 [Example 21, 4-[2-(1,2,3,5,6,7-hexahydropyrrolizin-8-ylmethoxy)-8-methyl-7-(1-methylindazol-7-yl)quinazolin-4-yl]-1,4-oxazepane]
